From PMC4426631, “Insect antimicrobial peptides show potentiating functional interactions against Gram-negative bacteria” (Proceedings of the Royal Society B: Biological Sciences, 2015) come the findings set out here.

Cf = 5(6)-carboxyfluorescein

For this assay, the system named is E. coli 498. The assay can be described thus: Bacteriostatic growth-rate dose-response assay, E. coli 498. It counts as cell-based. Conditions: abaecin in combination with hymenoptaecin. The protocol: Initial coarse-level growth inhibition assays were carried out with concentrations of peptides up to 200 μM. Further assays of growth rates (bacteriostatic activity) and cell viability (bactericidal activity) were carried out on a finer scale. […] Growth rates were derived from spline-fitted growth curves to optical density (OD) data, while cell viability was assessed by plating cultures and counting colony-forming units after 18 h. Dose–response curves were fitted to both the bacteriostatic and bactericidal data with Markov Chain Monte Carlo parameter optimization (further details in electronic supplementary material). […]
v) Coarse growth inhibition assays. […]
The assa ys were carried out in 96-well plates (Griener Bio On e, Frick enh ausen, Germ an y) in an Eon™ Microplate Spectrophotometer (BioTek Instruments, VT, USA) for 16 h while r eco rding of changes in the OD600 at 20- min intervals. […] The AMPs used inthis assay are sh own in Tables S1and S4. vi) Dose response curv e quantif ication […]
1.25, 2.5, 5, 10, and 20 μM) in rows, and 10 µl volumes of hymenoptaecin (final concentrations of 0, 0.625, 1.25, 2.5, 5, and 10 μM) in columns. […] Th e OD600 was measured ever y hour for 12 consecutive hours using a SpectraMax M2e microplate reader (Molecular Devices, Sunnyvale, USA). […]
Cell viability. […] Bacteria were grown for 18 h with AMPs before the number of viable cells was assessed. […]

In the case of “abaecin: proline-rich peptide abaecin, species version not specified at the place (Cf-FVPYNPPRPGQSKPFPSFPGHGPFNPKIQWPYPLPNPGH-NH2)”, the “effect of abaecin on the MIC of hymenoptaecin” value is on record as “reduce the minimal inhibitory concentration of hymenoptaecin”.
